We go through eleven compounds from ChEMBL document CHEMBL1201862, “PubChem BioAssay data set” (2004).

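1) Cells in 96-well plates. 2) Compound, 48 h, 5 concentrations. 3) Linear interpolation between surrounding doses. 4) Unreached endpoint = highest concentration. At the GI50, growth is halved.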 Active and inactive are the calls of the source. Cut-off read from the data, not from the text of the source: active = GI50 up to about 1.1 µM and inactive = higher.

Among the test systems are SF-268; LOX IMVI; UACC-62; HOP-62; MCF7; OVCAR-8; NCI-H460; NCI/ADR-RES; ACHN; T47D; UACC-257; OVCAR-5; HL-60; RPMI-8226; NCI-H23; MDA-N; SK-MEL-2; SN12C; TK-10; NCI-H226.
Holding throughout (test): NCI-60 cell line screen, 48 h

Regarding `O=c1c(/C=C/c2c(O)ccc3ccccc23)nnc2sc(-c3cccc(Br)c3)nn12`, the GI50 in the experiment with SF-268 is 4.51 µM (inactive); in the experiment with LOX IMVI, 4.88 µM (inactive); in the experiment with UACC-62 it was 20.7 µM (inactive); in the experiment on HOP-62 it was 24.8 µM (inactive); in the experiment with MCF7, 13.6 µM (inactive); in the experiment on OVCAR-8, 3.44 µM (inactive). In addition, the GI50 in the experiment with NCI-H460 was 25.4 µM (inactive); in the experiment on NCI/ADR-RES, 22.8 µM (inactive); with ACHN, 16.1 µM (inactive); in the experiment on T47D it was 15 µM (inactive); in the experiment on UACC-257, 23.7 µM (inactive); in the experiment on OVCAR-5, 19.5 µM (inactive). For the same compound, the GI50 is 3.94 µM (inactive) in the experiment with HL-60; 10.3 µM (inactive) in the experiment on RPMI-8226; 14.7 µM (inactive) with NCI-H23; 28.3 µM (inactive) with MDA-N; 23.6 µM (inactive) with SK-MEL-2.

On to `Nc1ccc2nc3n(c2c1)C(c1c(F)cccc1F)SC3` (stereo not given), for which the GI50 in the experiment on SF-268, with LOX IMVI, in the experiment with UACC-62, in the experiment with HOP-62, in the experiment on MCF7 and with OVCAR-8 was > 100 µM (inactive) throughout. The GI50 was > 100 µM (inactive) with SN12C; > 100 µM (inactive) with NCI-H460; > 100 µM (inactive) in the experiment on NCI/ADR-RES; > 100 µM (inactive) in the experiment with ACHN; > 100 µM (inactive) in the experiment with T47D; 89.1 µM (inactive) with UACC-257. For the same compound, the GI50 with OVCAR-5 was > 100 µM (inactive); with HL-60, 45.3 µM (inactive); in the experiment on TK-10, > 100 µM (inactive); in the experiment on RPMI-8226 it was 66.5 µM (inactive); in the experiment on NCI-H23, > 100 µM (inactive); in the experiment with MDA-N, > 100 µM (inactive). In addition, in the experiment with SK-MEL-2, the GI50 was > 100 µM (inactive).

For the compound `CCOC(=O)C1=COC(C)(c2ccccc2)CC1=O` (stereo not given), the GI50 with SF-268, in the experiment on UACC-62, with HOP-62, in the experiment with MCF7, in the experiment with OVCAR-8 and in the experiment on SN12C was > 100 µM (inactive) throughout. Besides, the GI50 with NCI-H460, in the experiment with NCI/ADR-RES, in the experiment on ACHN, with T47D, with UACC-257 and in the experiment on OVCAR-5 was > 100 µM (inactive) in each case. Moreover, the GI50 in the experiment on TK-10, in the experiment on RPMI-8226, in the experiment on NCI-H23, with MDA-N and in the experiment with SK-MEL-2 was > 100 µM (inactive) in each case.

For the compound `COC(=O)[C@]12CC3C=CC1N(C3)C(CBr)c1c2n(S(=O)(=O)c2ccccc2)c2ccccc12` (stereo not given in full), the GI50 in the experiment on LOX IMVI was 43.4 µM (inactive); in the experiment on UACC-62, 57.3 µM (inactive); in the experiment with HOP-62, 92.3 µM (inactive); in the experiment on MCF7 it was 46.9 µM (inactive); in the experiment with OVCAR-8, 49 µM (inactive); with SN12C, > 100 µM (inactive). Besides, the GI50 is 98.6 µM (inactive) in the experiment on NCI-H460; > 100 µM (inactive) with NCI/ADR-RES; 48.3 µM (inactive) in the experiment with ACHN; > 100 µM (inactive) in the experiment on UACC-257; > 100 µM (inactive) in the experiment on OVCAR-5; 35.1 µM (inactive) in the experiment with HL-60. For the same compound, the GI50 in the experiment on TK-10 was > 100 µM (inactive); with RPMI-8226, 0.292 µM (active); with NCI-H226 it was 41.7 µM (inactive); in the experiment with NCI-H23 it was 51.5 µM (inactive); in the experiment on MDA-N it was 60.1 µM (inactive); with SK-MEL-2, 79.4 µM (inactive).

With `O=C1c2ccccc2C(=O)c2c(NCCCN3CCOCC3)ccc(NCCCN3CCOCC3)c21`, the GI50 in the experiment on SF-268 was 2.75 µM (inactive); in the experiment on LOX IMVI, 1.54 µM (inactive); in the experiment on UACC-62, 2.03 µM (inactive); with HOP-62, 2.12 µM (inactive); in the experiment on MCF7, 5.9 µM (inactive); with OVCAR-8, 1.9 µM (inactive). Besides, the GI50 in the experiment on SN12C was 2.18 µM (inactive); with NCI-H460 it was 1.54 µM (inactive); in the experiment on ACHN, 2.07 µM (inactive); in the experiment on T47D, 29.3 µM (inactive); in the experiment with UACC-257, 2.96 µM (inactive); in the experiment on OVCAR-5 it was 9.42 µM (inactive). Besides, the GI50 with HL-60 is 2.45 µM (inactive); in the experiment with TK-10, 12.9 µM (inactive); in the experiment with RPMI-8226, 2 µM (inactive); with NCI-H226, 6.59 µM (inactive); with NCI-H23, < 0.01 µM (active); in the experiment with MDA-N, 3.22 µM (inactive). Further, the GI50 with SK-MEL-2 is 8.24 µM (inactive).

Consider `COc1ccc(/N=N/N2CCCC2)cc1`, for which the GI50 in the experiment with SF-268 is 31.8 µM (inactive); in the experiment with LOX IMVI, 16.1 µM (inactive); in the experiment on UACC-62 it was 30.9 µM (inactive); in the experiment on HOP-62, > 100 µM (inactive); with MCF7, 30.8 µM (inactive); in the experiment on SN12C it was 21.7 µM (inactive). Moreover, the GI50 was > 100 µM (inactive) with NCI-H460; 15.5 µM (inactive) in the experiment with ACHN; 18.3 µM (inactive) in the experiment on T47D; > 100 µM (inactive) in the experiment on UACC-257; 83.9 µM (inactive) in the experiment with OVCAR-5; 30.1 µM (inactive) in the experiment with HL-60. In addition, the GI50 in the experiment with TK-10 is 57.1 µM (inactive); with RPMI-8226, 26.1 µM (inactive); in the experiment with NCI-H226, > 100 µM (inactive); in the experiment on NCI-H23 it was 61.7 µM (inactive); in the experiment on MDA-N, 16.9 µM (inactive); with SK-MEL-2, > 100 µM (inactive).

Regarding `O=c1oc2c/c(=C\c3ccc([N+](=O)[O-])cc3)c(=O)c3cccc1c3-2`, the GI50 was 39.8 µM (inactive) in the experiment on SF-268; 35.2 µM (inactive) with LOX IMVI; > 100 µM (inactive) with UACC-62; 38.6 µM (inactive) in the experiment with HOP-62; > 100 µM (inactive) in the experiment with MCF7; 30.8 µM (inactive) with OVCAR-8. Also, the GI50 with SN12C, in the experiment with NCI-H460, with NCI/ADR-RES, with ACHN, in the experiment with T47D and in the experiment with UACC-257 was > 100 µM (inactive) throughout. Moreover, the GI50 was > 100 µM (inactive) in the experiment with OVCAR-5; > 100 µM (inactive) in the experiment on HL-60; 21.9 µM (inactive) with TK-10; > 100 µM (inactive) with RPMI-8226; > 100 µM (inactive) in the experiment on NCI-H23; > 100 µM (inactive) in the experiment on MDA-N. Moreover, the GI50 in the experiment on SK-MEL-2 is > 100 µM (inactive).

As to `COc1cc2c(c3c1c(=O)c1ccccc1n3C)C=CC1(CCCC1)O2`, the GI50 with SF-268 was 18.8 µM (inactive); in the experiment on LOX IMVI it was 1.02 µM (active); in the experiment with UACC-62 it was 13.1 µM (inactive); with HOP-62, 12.8 µM (inactive); in the experiment with MCF7, 16 µM (inactive); in the experiment with OVCAR-8, 18.4 µM (inactive). For the same compound, the GI50 is 19.1 µM (inactive) with SN12C; 10.2 µM (inactive) in the experiment on NCI-H460; 23.7 µM (inactive) in the experiment on NCI/ADR-RES; 16.3 µM (inactive) in the experiment on ACHN; 15.9 µM (inactive) in the experiment with UACC-257; 12.9 µM (inactive) in the experiment with OVCAR-5. The GI50 is 7.29 µM (inactive) in the experiment with HL-60; 15.6 µM (inactive) in the experiment with TK-10; 1.81 µM (inactive) in the experiment with RPMI-8226; 16 µM (inactive) in the experiment with NCI-H226; 12.9 µM (inactive) in the experiment on NCI-H23; 15.3 µM (inactive) with MDA-N. The GI50 with SK-MEL-2 was 14 µM (inactive).

`COc1cc2c(c(O)c1OC)-c1c(cc(OC)c(OC)c1OC)CC(C)C(C)C2` (stereo not given) [GOMISIN K3]: the GI50 with SF-268 was 78 µM (inactive); with LOX IMVI, 49.9 µM (inactive); with UACC-62, 43.1 µM (inactive); with HOP-62, > 100 µM (inactive); in the experiment on MCF7, 33 µM (inactive); in the experiment on OVCAR-8, 51.9 µM (inactive). For the same compound, the GI50 in the experiment on SN12C is 47.8 µM (inactive); in the experiment with NCI-H460, 31.2 µM (inactive); with ACHN it was 39.1 µM (inactive); in the experiment on T47D it was 30.4 µM (inactive); in the experiment with UACC-257, 25.6 µM (inactive); in the experiment on OVCAR-5, > 100 µM (inactive). Further, the GI50 in the experiment with HL-60 was 25.5 µM (inactive); with TK-10 it was 26.5 µM (inactive); in the experiment on RPMI-8226 it was 39.4 µM (inactive); in the experiment on NCI-H226, 42.8 µM (inactive); in the experiment with NCI-H23, 49 µM (inactive); in the experiment on MDA-N, 73.3 µM (inactive). The GI50 in the experiment on SK-MEL-2 was 45.2 µM (inactive).

As to `OCCCN(CCc1ccc(Cl)c(Cl)c1)CCN1CCCC1`, the GI50 in the experiment on SF-268 was 48 µM (inactive); in the experiment on LOX IMVI, 35.9 µM (inactive); in the experiment on UACC-62, 16.9 µM (inactive); in the experiment on HOP-62, > 100 µM (inactive); with MCF7, 27.4 µM (inactive); in the experiment with OVCAR-8 it was > 100 µM (inactive). Also, the GI50 with SN12C is 73.3 µM (inactive); in the experiment with NCI-H460 it was 51.2 µM (inactive); in the experiment with NCI/ADR-RES, 81.5 µM (inactive); in the experiment on ACHN, 64.6 µM (inactive); in the experiment with T47D it was 33.1 µM (inactive); in the experiment on UACC-257 it was 19.3 µM (inactive). In addition, the GI50 in the experiment on OVCAR-5 is 31.4 µM (inactive); in the experiment on HL-60, 34.4 µM (inactive); in the experiment with TK-10, 40.6 µM (inactive); with RPMI-8226 it was 26.5 µM (inactive); in the experiment on NCI-H23, 69.8 µM (inactive); in the experiment with MDA-N, 17.3 µM (inactive). For the same compound, the GI50 in the experiment with SK-MEL-2 was 18.9 µM (inactive).

On to `COc1cc(NC(C)=O)ccc1C(=O)N/N=C/c1ccco1`, for which the GI50 with SF-268 is > 100 µM (inactive); in the experiment with LOX IMVI, 97.5 µM (inactive); with UACC-62 it was > 100 µM (inactive); in the experiment on HOP-62, > 100 µM (inactive); in the experiment on MCF7 it was 52.2 µM (inactive); in the experiment on OVCAR-8 it was > 100 µM (inactive). Besides, the GI50 in the experiment on SN12C was > 100 µM (inactive); with NCI/ADR-RES, > 100 µM (inactive); in the experiment on ACHN it was 63 µM (inactive); in the experiment with T47D, > 100 µM (inactive); in the experiment on OVCAR-5 it was > 100 µM (inactive); with HL-60, 46.5 µM (inactive). Also, the GI50 is 77.6 µM (inactive) in the experiment on RPMI-8226, > 100 µM (inactive) in the experiment on NCI-H23, > 100 µM (inactive) with MDA-N and > 100 µM (inactive) in the experiment with SK-MEL-2.
